Results on three substances are retold here after article PMC7606587 (Nuclear medicine and biology, 2020).

Where two headings read alike, the source gives them in different places.

This series has as its system C4–2B prostate cancer xenografts. It counts as in vivo, athymic (BALB/c nu/nu) mice. The conditions noted are these: for blood clearance (in words): 1 and 4 h pi.
The mark [1] stands for this setting: C4–2B xenograft, 4 h pi, tail vein injection.
The mark [2] stands for this setting: C4–2B xenograft, time point not stated at the place (study at 1, 4, 24 h pi).

On to “3-B10H9-dioxa-5-LuG-dPEG4-Ph-Lys-Ac [[^131I]16b]”, for which the “tumor concentration relative to [131I]16a” value (C4–2B xenograft) was ~ 4 ×. Besides, the tumor concentration is, setting by setting: under setting [1], ~ 15 %ID/g; under setting [2], 14–15 %ID/g.

For the substance “3-B10H9-dioxa-5-dPEG12CO2H-Ph-Lys-Ac [[^125I]9a]”, the “blood clearance (in words)” value is given as “rapid blood clearance”. For the same substance, under “1 h pi”, the “concentration in all the tissues except for the intestine” value is “lower than 2 % ID/g” and the intestine concentration is given as 12 %ID/g. Further, the “tumor uptake / tumor targeting (in words)” value (C4–2B xenograft) was “essentially no tumor uptake”.

With “3-B10H9-dioxa-5-LuG-dPEG12-Ph-Lys-Ac [[^131I]16a]”, the “blood clearance (in words)” value is listed as “rapid blood clearance”. Besides, where the note is “1 h pi”, the highest spleen concentration turned out to be 9 %ID/g and the “tumor concentration relative to blood concentration” value worked out at 2.3 ×. For the same substance, where the note is “4 h pi”, the kidney concentration was ~ 94 %ID/g and the “tumor concentration relative to blood concentration” value is 4.7 ×. Where the note is “4 h pi, listed as 16a”, the kidney concentration came out at 94 %ID/g. The tumor concentration (C4–2B xenograft, 1 h pi) is ~ 4 % ID/g. In addition, the tumor concentration under setting [1] is recorded as ~ 4 %ID/g. Under “C4–2B xenograft, at 1 and 4 h pi”, the tumor concentration was under 5 %ID/g. Further, under setting [2], the tumor concentration was ~ 4 %ID/g.
